From ChEMBL document CHEMBL1687836, “Oral hexadecyloxypropyl-cidofovir therapy in pregnant guinea pigs improves outcome in the congenital model of cytomegalovirus infection” (Antimicrob Agents Chemother, 2011)
Activity calls are given as the source filed them. No cut-off for these calls is given here.

Experiments:
[1] = test system: Caviid betaherpesvirus 2; test: Antiviral activity against Guinea pig cytomegalovirus strain 22122 infected in second and third trimesters of pregnant Hartley guinea pig assessed as fetus spleen with detectable viral DNA at 4 mg/kg, po qd for 9 days measured 10 days post infection by real-time PCR (reference value: 47%); format: functional
[2] = test system: Caviid betaherpesvirus 2; test: (§1) Antiviral activity against Guinea pig cytomegalovirus strain 22122 infected in second and third trimesters of pregnant Hartley guinea pig assessed as dam liver viral log10 genome copies/ug of DNA at 4 mg/kg, po qd for 9 days measured 10 days post infection by real-time PCR (reference value: 4.82 +/- 0.8 log10 genome copies/ug of DNA); format: functional
[3] = test system: Caviid betaherpesvirus 2; test: Antiviral activity against Guinea pig cytomegalovirus strain 22122 infected in second and third trimesters of pregnant Hartley guinea pig assessed as pup liver containing detectable viral DNA at 20 mg/kg, po once at 24 hrs post infection and once at 7 days post infection (reference value: 73%); format: functional
[4] = test system: Cavia porcellus; test: Toxicity in Guinea pig cytomegalovirus strain 22122 infected second and third trimesters of pregnant Hartley guinea pig assessed as decreased animal activity at 20 mg/kg, po once at 24 hrs post infection and once 7 days post infection; format: organism-based; set-up: dose 20 mg/kg, route oral; conditions: in vivo
[5] = test system: Caviid betaherpesvirus 2; test: Antiviral activity against Guinea pig cytomegalovirus strain 22122 infected in second and third trimesters of pregnant Hartley guinea pig assessed as reduction in pups with detectable viral DNA at 20 mg/kg, po once at 24 hrs post infection and once at 7 days post infection; format: functional, organism-based; set-up: dose 20 mg/kg; conditions: Guinea pig cytomegalovirus (strain 22122 / ATCC VR682) (GPCMV)
[6] = test system: Caviid betaherpesvirus 2; test: Antiviral activity against Guinea pig cytomegalovirus strain 22122 infected in second and third trimesters of pregnant Hartley guinea pig assessed as reduction in viral DNA level in dam spleen at 20 mg/kg, po once at 24 hrs post infection and once at 7 days post infection relative to dam control; format: functional
[7] = test system: Caviid betaherpesvirus 2; test: Antiviral activity against Guinea pig cytomegalovirus strain 22122 infected in second and third trimesters of pregnant Hartley guinea pig assessed as pregnancy outcome measured as live-born pups at 4 mg/kg, po treatment started at 24 hrs post infection for 5 consecutive days (reference value: 62.5%); format: functional
[8] = Cytotoxicity against guinea pig CCL158 cells after 10 days by crystal violet staining; format: cell-based, Cavia porcellus
[9] = test system: Caviid betaherpesvirus 2; test: Antiviral activity against Guinea pig cytomegalovirus strain 22122 infected in second and third trimesters of pregnant Hartley guinea pig assessed as dam placenta with detectable viral DNA at 4 mg/kg, po qd for 5 days measured 10 days post infection by real-time PCR (reference value: 100%); format: functional
[10] = test system: Cavia porcellus; test: Toxicity in Guinea pig cytomegalovirus strain 22122 infected second and third trimesters of pregnant Hartley guinea pig assessed as dam kidney toxicity at 4 mg/kg, po treatment started at 24 hrs post infection for 9 consecutive days; format: organism-based; set-up: dose 4 mg/kg, route oral; conditions: in vivo
[11] = test system: Caviid betaherpesvirus 2; test: Antiviral activity against Guinea pig cytomegalovirus strain 22122 infected in second and third trimesters of pregnant Hartley guinea pig assessed as dam placenta with detectable viral DNA at 4 mg/kg, po qd for 9 days measured 10 days post infection by real-time PCR (reference value: 100%); format: functional
[12] = test system: Caviid betaherpesvirus 2; test: Antiviral activity against Guinea pig cytomegalovirus strain 22122 infected in second and third trimesters of pregnant Hartley guinea pig assessed as reduction in viral DNA level in dam liver at 20 mg/kg, po once at 24 hrs post infection and once at 7 days post infection relative to dam control; format: functional
[13] = test system: Cavia porcellus; test: Toxicity in Guinea pig cytomegalovirus strain 22122 infected second and third trimesters of pregnant Hartley guinea pig assessed as adverse effect on complete blood count in new born pups at 4 mg/kg, po treatment started at 24 hrs post infection for 9 consecutive days; format: organism-based; set-up: dose 4 mg/kg, route oral; conditions: in vivo
[14] = test system: Caviid betaherpesvirus 2; test: Antiviral activity against Guinea pig cytomegalovirus strain 22122 infected in second and third trimesters of pregnant Hartley guinea pig assessed as increase in pup survival at 20 mg/kg, po once at 24 hrs post infection and once at 7 days post infection; format: functional, organism-based; set-up: dose 20 mg/kg; conditions: Guinea pig cytomegalovirus (strain 22122 / ATCC VR682) (GPCMV)
[15] = test system: Cavia porcellus; test: Toxicity in Guinea pig cytomegalovirus strain 22122 infected second and third trimesters of pregnant Hartley guinea pig assessed as low birth weight pups at 20 mg/kg, po once at 24 hrs post infection and once 7 days post infection (reference value: 107 +/- 10 g); format: organism-based; set-up: dose 20 mg/kg, route oral; conditions: in vivo
[16] = test system: Cavia porcellus; test: Toxicity in Guinea pig cytomegalovirus strain 22122 infected second and third trimesters of pregnant Hartley guinea pig assessed as decreased animal activity at 4 mg/kg, po treatment started at 24 hrs post infection for 5 consecutive days; format: organism-based; set-up: dose 4 mg/kg, route oral; conditions: in vivo
[17] = test system: Caviid betaherpesvirus 2; test: Antiviral activity against Guinea pig cytomegalovirus strain 22122 infected guinea pig CCL158 cells assessed as plaque reduction measured after 10 days by plaque reduction assay; format: functional, organism-based; conditions: Caviid betaherpesvirus 2, CCL158, 240 h
[18] = test system: Caviid betaherpesvirus 2; test: Antiviral activity against Guinea pig cytomegalovirus strain 22122 infected in second and third trimesters of pregnant Hartley guinea pig assessed as reduction in dam blood viral log10 genome copies/ug of DNA at 20 mg/kg, po once at 24 hrs post infection and once at 7 days post infection (reference value: 3.22 +/- 0.2 log10 genome copies/ug DNA); format: functional
[19] = test system: Caviid betaherpesvirus 2; test: Antiviral activity against Guinea pig cytomegalovirus strain 22122 infected in second and third trimesters of pregnant Hartley guinea pig assessed as reduction in viral DNA level in pup spleen at 20 mg/kg, po once at 24 hrs post infection and once at 7 days post infection relative to control pup; format: functional
[20] = test system: Caviid betaherpesvirus 2; test: Antiviral activity against Guinea pig cytomegalovirus strain 22122 infected in second and third trimesters of pregnant Hartley guinea pig assessed as dam spleen with detectable viral DNA at 4 mg/kg, po qd for 5 days measured 10 days post infection by real-time PCR (reference value: 100%); format: functional
[21] = test system: Caviid betaherpesvirus 2; test: as §1, with “fetus spleen” for “dam liver”, “5” for “9”, “1.63” for “4.82”, “0.6” for “0.8”; format: functional
[22] = test system: Cavia porcellus; test: Toxicity in Guinea pig cytomegalovirus strain 22122 infected second and third trimesters of pregnant Hartley guinea pig assessed as animal weight loss at 20 mg/kg, po once at 24 hrs post infection and once 7 days post infection; format: organism-based; set-up: dose 20 mg/kg, route oral; conditions: in vivo
[23] = Selectivity index, ratio of CC50 for guinea pig CCL158 cells to IC50 for Guinea pig cytomegalovirus strain 22122; format: functional
[24] = test system: Caviid betaherpesvirus 2; test: as §1, with “5” for “9”; format: functional
[25] = test system: Caviid betaherpesvirus 2; test: Antiviral activity against Guinea pig cytomegalovirus strain 22122 infected in second and third trimesters of pregnant Hartley guinea pig assessed as reduction in dam viremia at 4 mg/kg, po qd for 5 days; format: functional, organism-based; set-up: dose 4 mg/kg; conditions: Guinea pig cytomegalovirus (strain 22122 / ATCC VR682) (GPCMV)
[26] = test system: Caviid betaherpesvirus 2; test: Antiviral activity against Guinea pig cytomegalovirus strain 22122 infected in second and third trimesters of pregnant Hartley guinea pig assessed as dam spleen with detectable viral DNA at 4 mg/kg, po qd for 9 days measured 10 days post infection by real-time PCR (reference value: 100%); format: functional
[27] = test system: Caviid betaherpesvirus 2; test: as §1, with “fetus” for “dam”, “2.20” for “4.82”, “0.6” for “0.8”; format: functional
[28] = test system: Caviid betaherpesvirus 2; test: as §1, with “spleen” for “liver”, “4.12” for “4.82”, “0.3” for “0.8”; format: functional
[29] = test system: Caviid betaherpesvirus 2; test: Antiviral activity against Guinea pig cytomegalovirus strain 22122 infected in second and third trimesters of pregnant Hartley guinea pig assessed as dam liver with detectable viral DNA at 4 mg/kg, po qd for 5 days measured 10 days post infection by real-time PCR (reference value: 100%); format: functional
[30] = test system: Caviid betaherpesvirus 2; test: Antiviral activity against Guinea pig cytomegalovirus strain 22122 infected in second and third trimesters of pregnant Hartley guinea pig assessed as pup spleen containing detectable viral DNA at 20 mg/kg, po once at 24 hrs post infection and once at 7 days post infection (reference value: 44%); format: functional
[31] = test system: Caviid betaherpesvirus 2; test: as §1, with “spleen” for “liver”, “5” for “9”, “4.12” for “4.82”, “0.3” for “0.8”; format: functional
[32] = test system: Caviid betaherpesvirus 2; test: Antiviral activity against Guinea pig cytomegalovirus strain 22122 infected in second and third trimesters of pregnant Hartley guinea pig assessed as dam liver with detectable viral DNA at 4 mg/kg, po qd for 9 days measured 10 days post infection by real-time PCR (reference value: 100%); format: functional
[33] = test system: Caviid betaherpesvirus 2; test: as §1, with “fetus spleen” for “dam liver”, “1.63” for “4.82”, “0.6” for “0.8”; format: functional
[34] = test system: Caviid betaherpesvirus 2; test: Antiviral activity against Guinea pig cytomegalovirus strain 22122 infected in second and third trimesters of pregnant Hartley guinea pig assessed as reduction in viral DNA level in pup liver at 20 mg/kg, po once at 24 hrs post infection and once at 7 days post infection relative to control pup; format: functional
[35] = test system: Caviid betaherpesvirus 2; test: Antiviral activity against Guinea pig cytomegalovirus strain 22122 infected in second and third trimesters of pregnant Hartley guinea pig assessed as fetus liver with detectable viral DNA at 4 mg/kg, po qd for 5 days measured 10 days post infection by real-time PCR (reference value: 87%); format: functional
[36] = test system: Cavia porcellus; test: Toxicity in Guinea pig cytomegalovirus strain 22122 infected second and third trimesters of pregnant Hartley guinea pig assessed as adverse effect on complete blood count at 4 mg/kg, po treatment started at 24 hrs post infection for 9 consecutive days; format: organism-based; set-up: dose 4 mg/kg, route oral; conditions: in vivo
[37] = test system: Cavia porcellus; test: Toxicity in Guinea pig cytomegalovirus strain 22122 infected second and third trimesters of pregnant Hartley guinea pig assessed as dam liver toxicity at 4 mg/kg, po treatment started at 24 hrs post infection for 9 consecutive days; format: organism-based; set-up: dose 4 mg/kg, route oral; conditions: in vivo
[38] = test system: Cavia porcellus; test: Toxicity in Guinea pig cytomegalovirus strain 22122 infected second and third trimesters of pregnant Hartley guinea pig assessed as pup kidney toxicity at 4 mg/kg, po treatment started at 24 hrs post infection for 9 consecutive days; format: organism-based; set-up: dose 4 mg/kg, route oral; conditions: in vivo
[39] = test system: Caviid betaherpesvirus 2; test: Antiviral activity against Guinea pig cytomegalovirus strain 22122 infected in second and third trimesters of pregnant Hartley guinea pig assessed as fetus liver with detectable viral DNA at 4 mg/kg, po qd for 9 days measured 10 days post infection by real-time PCR (reference value: 87%); format: functional
[40] = test system: Caviid betaherpesvirus 2; test: Antiviral activity against Guinea pig cytomegalovirus strain 22122 infected in second and third trimesters of pregnant Hartley guinea pig assessed as fetus spleen with detectable viral DNA at 4 mg/kg, po qd for 5 days measured 10 days post infection by real-time PCR (reference value: 47%); format: functional
[41] = test system: Caviid betaherpesvirus 2; test: as §1, with “fetus” for “dam”, “5” for “9”, “2.20” for “4.82”, “0.6” for “0.8”; format: functional
[42] = test system: Caviid betaherpesvirus 2; test: Antiviral activity against Guinea pig cytomegalovirus strain 22122 infected in second and third trimesters of pregnant Hartley guinea pig assessed as pregnancy outcome measured as live-born pups at 20 mg/kg, po once at 24 hrs post infection and once 7 days post infection; format: functional
[43] = test system: Cavia porcellus; test: Toxicity in Guinea pig cytomegalovirus strain 22122 infected second and third trimesters of pregnant Hartley guinea pig assessed as low birth weight pups at 4 mg/kg, po treatment started at 24 hrs post infection for 5 consecutive days (reference value: 107 +/- 10 g); format: organism-based; set-up: dose 4 mg/kg, route oral; conditions: in vivo
[44] = test system: Cavia porcellus; test: Toxicity in Guinea pig cytomegalovirus strain 22122 infected second and third trimesters of pregnant Hartley guinea pig assessed as animal weight loss at 4 mg/kg, po treatment started at 24 hrs post infection for 5 consecutive days; format: organism-based; set-up: dose 4 mg/kg, route oral; conditions: in vivo
[45] = test system: Cavia porcellus; test: Toxicity in Guinea pig cytomegalovirus strain 22122 infected second and third trimesters of pregnant Hartley guinea pig assessed as pup liver toxicity at 4 mg/kg, po treatment started at 24 hrs post infection for 9 consecutive days; format: organism-based; set-up: dose 4 mg/kg, route oral; conditions: in vivo

EC50 [17]: 4 nM
SMILES: CCCCCCCCCCCCCCCCOCCCOP(=O)(O)CO[C@H](CO)Cn1ccc(N)nc1=O [BRINCIDOFOVIR]
Activity [1]: 62%
Activity [2]: 3.01
Activity [3]: 57%
Activity [4]: Non-toxic
Activity [5]: Active
fold change (FC) [6]: 5
Activity [7]: 100%
CC50 at 240 h [8]: > 100000 nM
Activity [9]: 100%
Activity [10]: Non-toxic
Activity [11]: 100%
fold change (FC) [12]: 6.5
Activity [13]: Non-toxic
Activity [14]: Active
Activity [15]: 103 g
Activity [16]: Non-toxic
Activity [18]: 2.88
fold change (FC) [19]: 6
Activity [20]: 100%
Activity [21]: 1.91
Activity [22]: Non-toxic
Selectivity Index [23]: >25000
Activity [24]: 2.98
Activity [25]: Active
Activity [26]: 100%
Activity [27]: 1.87
Activity [28]: 2.09
Activity [29]: 100%
Activity [30]: 25%
Activity [31]: 2.77
Activity [32]: 100%
Activity [33]: 1.65
fold change (FC) [34]: 10.5
Activity [35]: 92%
Activity [36]: Non-toxic
Activity [37]: Non-toxic
Activity [38]: Non-toxic
Activity [39]: 85%
Activity [40]: 77%
Activity [41]: 2.12
Activity [42]: 93.8%
Activity [43]: 103 g
Activity [44]: Non-toxic
Activity [45]: Non-toxic
